Patent US20220073554A1, “LINCOSAMIDE ANTIBIOTICS AND USES THEREOF” (President and Fellows of Harvard College, priority 2017, published 2022)
In brackets after ≈: the same amount, converted by molar mass. Read-outs that look alike come from different tables or passages of the source.

How the values were obtained:
Assay type in all cases: cell-based
E. faecalis ATCC 29212 = assay: MIC against E. faecalis ATCC 29212; conditions: Enterococcus faecalis
[1] = tested on: P. aeruginosa MMX 3476 Δmex; assay: MIC against P. aeruginosa MMX 3476 Δmex; conditions: Pseudomonas aeruginosa
C. difficile BAA 1805 = assay: MIC against C. difficile BAA 1805; conditions: Clostridioides difficile, BAA1805
S. aureus MMX 3035 cErmA = assay: MIC against S. aureus MMX 3035 cErmA; conditions: Staphylococcus aureus, MMX3035CERMA
P. aeruginosa ATCC 27853 = assay: MIC against P. aeruginosa ATCC 27853; conditions: Pseudomonas aeruginosa, ATCC27853
[2] = tested on: E. faecalis MMX 847 Macrolide-Resistant; assay: MIC against E. faecalis MMX 847 Macrolide-Resistant; conditions: Enterococcus faecalis
S. pyogenes ATCC 19615 = assay: MIC against S. pyogenes ATCC 19615; conditions: Streptococcus pyogenes, ATCC19615; S. pyogenes ATCC 19615; read-out: MIC
E. coli ATCC 15922 = assay: MIC against E. coli ATCC 15922; conditions: Escherichia coli, ATCC15922
[3] = tested on: P. aeruginosa MMX Mex parent strain; assay: MIC against P. aeruginosa MMX Mex parent strain; conditions: Pseudomonas aeruginosa
[4] = tested on: S. aureus Micromyx USA 300; assay: MIC against S. aureus Micromyx USA 300; conditions: Staphylococcus aureus, USA300
[5] = tested on: E. coli MMX TolC parent strain; assay: MIC against E. coli MMX TolC parent strain; conditions: Escherichia coli
[6] = tested on: S. pyogenes MMX 946 Macrolide-Resistant; assay: MIC against S. pyogenes MMX 946 Macrolide-Resistant; conditions: Streptococcus pyogenes
S. aureus BAA 977 iErmA = assay: MIC against S. aureus BAA 977 iErmA; conditions: Staphylococcus aureus, BAA977
H. influenzae ATCC 49247 = assay: MIC against H. influenzae ATCC 49247; conditions: Haemophilus influenzae, ATCC49247
B. fragilis ATCC 25285 = assay: MIC against B. fragilis ATCC 25285; conditions: Bacteroides fragilis, ATCC25285
E. coli MMX 0121 ΔTolC = assay: MIC against E. coli MMX 0121 ΔTolC; conditions: Escherichia coli
[7] = tested on: S. pneumoniae MMX 3028 cErmB; assay: MIC against S. pneumoniae MMX 3028 cErmB; conditions: Streptococcus pneumoniae, MMX3028CERMB
S. aureus ATCC 29213 = assay: MIC against S. aureus ATCC 29213; conditions: Staphylococcus aureus
S. pneumoniae ATCC 49619 = assay: MIC against S. pneumoniae ATCC 49619; conditions: Streptococcus pneumoniae, ATCC49619; S. pneumoniae ATCC 49619; read-out: MIC
[8] = tested on: S. pneumoniae MMX 3031 cMefA; assay: MIC against S. pneumoniae MMX 3031 cMefA; conditions: Streptococcus pneumoniae, MMX3031CMEFA
E. coli ATCC 25922 = assay: MIC against E. coli ATCC 25922; conditions: Escherichia coli, ATCC25922
[9] = S. aureus Micromyx USA 300, read-out: MIC
[10] = ATCC29213, S. aureus ATCC 29213, read-out: MIC

CSC1O[C@H]([C@H](NC(=O)[C@H]2NC[C@@H]3C=C(c4ccc(C(F)(F)F)cc4)CCO[C@@H]23)[C@H](C)Cl)C(O)[C@@H](O)[C@H]1O (stereo partly shown) [FSA-507053] was tested, and the MIC (E. faecalis ATCC 29212; ATCC29212, read-out: MIC) was 2 µg/mL (≈ 3.44 µM), the MIC [1] was greater than 64 µg/mL and the MIC (C. difficile BAA 1805; C. difficile BAA 1805, read-out: MIC) was 8 µg/mL (≈ 13.8 µM). For the same compound, the MIC (S. aureus MMX 3035 cErmA) was greater than 64 µg/mL, the MIC (P. aeruginosa ATCC 27853) was greater than 64 µg/mL and the MIC [2] was greater than 64 µg/mL. The MIC (S. pyogenes ATCC 19615) was no more than 0.06 µg/mL, the MIC (E. coli ATCC 15922) was greater than 64 µg/mL and the MIC [3] was greater than 64 µg/mL. It also gave an MIC [4, 9] of 0.5 µg/mL (≈ 0.861 µM) and an MIC [5] greater than 64 µg/mL.

In the case of CSC1O[C@H]([C@H](NC(=O)[C@H]2NC[C@@H]3C=C(c4ccc(F)cc4)CCO[C@@H]23)[C@H](C)Cl)C(O)[C@@H](O)[C@H]1O (stereo partly shown) [FSA-507052], the MIC [6] was greater than 32 µg/mL, the MIC (E. faecalis ATCC 29212; ATCC29212, read-out: MIC) was 1 µg/mL (≈ 1.88 µM) and the MIC [1] was greater than 32 µg/mL. For the same compound, the MIC (S. aureus BAA 977 iErmA) was 2 µg/mL (≈ 3.77 µM), the MIC (S. aureus MMX 3035 cErmA) was greater than 32 µg/mL and the MIC (H. influenzae ATCC 49247) was greater than 32 µg/mL. For the same compound, the MIC (B. fragilis ATCC 25285) was greater than 32 µg/mL, the MIC (E. coli MMX 0121 ΔTolC) was greater than 32 µg/mL and the MIC (P. aeruginosa ATCC 27853) was greater than 32 µg/mL. It also gave an MIC [2] greater than 32 µg/mL, an MIC (E. coli ATCC 15922) greater than 32 µg/mL and an MIC [7] greater than 32 µg/mL. It also gave an MIC [3] greater than 32 µg/mL, an MIC [4, 9] of 0.5 µg/mL (≈ 0.942 µM) and an MIC [5] greater than 32 µg/mL. For the same compound, the MIC (S. aureus ATCC 29213; [10]) was 2 µg/mL (≈ 3.77 µM).

CSC1O[C@H]([C@H](NC(=O)[C@H]2NC[C@@H]3CC(c4ccc(C(F)(F)F)cc4)=CCO[C@H]32)[C@H](C)Cl)C(O)[C@@H](O)[C@H]1O (stereo partly shown) [FSA-507060] was tested, and the MIC (E. faecalis ATCC 29212; ATCC29212, read-out: MIC) was 8 µg/mL (≈ 13.8 µM), the MIC [1] was greater than 64 µg/mL and the MIC (S. aureus BAA 977 iErmA) was 1 µg/mL (≈ 1.72 µM). The MIC (P. aeruginosa ATCC 27853) was greater than 64 µg/mL, the MIC (S. pneumoniae ATCC 49619) was 0.5 µg/mL (≈ 0.861 µM) and the MIC [3] was greater than 64 µg/mL. For the same compound, the MIC [4, 9] was 0.12 µg/mL (≈ 0.207 µM) and the MIC (S. aureus ATCC 29213; [10]) was 2 µg/mL (≈ 3.44 µM).

Work on CSC1O[C@H]([C@H](NC(=O)[C@H]2NC[C@@H]3CC(c4ccc(F)cc4)=CCO[C@H]32)[C@H](C)Cl)C(O)[C@@H](O)[C@H]1O (stereo partly shown) [FSA-507057] yielded an MIC [6] greater than 64 µg/mL, an MIC (E. faecalis ATCC 29212; ATCC29212, read-out: MIC) of 1 µg/mL (≈ 1.88 µM) and an MIC [1] greater than 64 µg/mL. It also gave an MIC (S. aureus BAA 977 iErmA) of 1 µg/mL (≈ 1.88 µM), an MIC (S. aureus MMX 3035 cErmA) greater than 64 µg/mL and an MIC [8] of no more than 0.06 µg/mL. It also gave an MIC (P. aeruginosa ATCC 27853) greater than 64 µg/mL, an MIC [2] greater than 64 µg/mL and an MIC (S. pneumoniae ATCC 49619) of no more than 0.06 µg/mL. The MIC (E. coli ATCC 15922) was greater than 64 µg/mL, the MIC [3] was greater than 64 µg/mL and the MIC [4, 9] was 1 µg/mL (≈ 1.88 µM). It also gave an MIC [5] greater than 64 µg/mL and an MIC (S. aureus ATCC 29213; [10]) of 2 µg/mL (≈ 3.77 µM).

CSC1O[C@H]([C@H](NC(=O)[C@H]2NC[C@@H]3C=C(c4ccccc4)CCO[C@@H]23)[C@H](C)Cl)C(O)[C@@H](O)[C@H]1O (stereo partly shown) [FSA-507031] showed an MIC [6] greater than 32 µg/mL, an MIC (E. faecalis ATCC 29212; ATCC29212) greater than 32 µg/mL and an MIC [1] greater than 32 µg/mL. For the same compound, the MIC (S. aureus BAA 977 iErmA) was greater than 32 µg/mL, the MIC (C. difficile BAA 1805) was greater than 32 µg/mL and the MIC (E. coli ATCC 25922) was greater than 32 µg/mL. It also gave an MIC (S. aureus MMX 3035 cErmA) greater than 32 µg/mL, an MIC (H. influenzae ATCC 49247; H. influenzae ATCC 49247, read-out: MIC) of 8 µg/mL (≈ 15.6 µM) and an MIC (B. fragilis ATCC 25285) greater than 32 µg/mL. The MIC (E. coli MMX 0121 ΔTolC) was greater than 32 µg/mL, the MIC (P. aeruginosa ATCC 27853) was greater than 32 µg/mL and the MIC [2] was greater than 32 µg/mL. The MIC [7] was greater than 32 µg/mL, the MIC [3] was greater than 32 µg/mL and the MIC [4] was greater than 32 µg/mL. The MIC [5] was greater than 32 µg/mL and the MIC (S. aureus ATCC 29213; ATCC29213) was greater than 32 µg/mL.

CSC1O[C@H]([C@H](NC(=O)[C@H]2NC[C@@H]3CC(c4ccccc4)=CCO[C@H]32)[C@H](C)Cl)C(O)[C@@H](O)[C@H]1O (stereo partly shown) [FSA-507056] gave an MIC [6] greater than 32 µg/mL, an MIC (E. faecalis ATCC 29212; ATCC29212, read-out: MIC) of 2 µg/mL (≈ 3.9 µM) and an MIC [1] greater than 32 µg/mL. It also gave an MIC (S. aureus BAA 977 iErmA) of 1 µg/mL (≈ 1.95 µM), an MIC (E. coli ATCC 25922) greater than 32 µg/mL and an MIC (S. aureus MMX 3035 cErmA) greater than 32 µg/mL. The MIC (H. influenzae ATCC 49247) was greater than 32 µg/mL, the MIC (B. fragilis ATCC 25285) was greater than 32 µg/mL and the MIC (E. coli MMX 0121 ΔTolC) was greater than 32 µg/mL. For the same compound, the MIC (P. aeruginosa ATCC 27853) was greater than 32 µg/mL, the MIC [2] was greater than 32 µg/mL and the MIC [7] was greater than 32 µg/mL. The MIC [3] was greater than 32 µg/mL, the MIC [4, 9] was 0.5 µg/mL (≈ 0.975 µM) and the MIC [5] was greater than 32 µg/mL. The MIC (S. aureus ATCC 29213; [10]) was 1 µg/mL (≈ 1.95 µM).
